Assay results as given in ChEMBL document CHEMBL1131748, “Nitroquinolones with broad-spectrum antimycobacterial activity in vitro” (1999).
≈ marks a conversion by molar mass, not a printed value.

Legend:
Assay type in all cases: functional
MT4 = experiment: Concentration required to reduce the viability of mock-infected MT-4 cells by 50%; conditions: Homo sapiens
Mycobacterium avium [1] = experiment: Minimum inhibitory concentration required in vitro to reduce the number of viable of Mycobacterium avium complex (MAC) ATCC 49601 by 50%
[2] = system: Mycolicibacterium fortuitum; experiment: Minimum inhibitory concentration required in vitro to reduce the number of viable of Mycobacterium fortuitum (clinical isolate) by 50%
[3] = system: Mycolicibacterium fortuitum; experiment: Minimum inhibitory concentration required in vitro to reduce the number of viable of Mycobacterium fortuitum (clinical isolate) by 90%
[4] = system: Mycolicibacterium smegmatis; experiment: Minimum inhibitory concentration required in vitro to reduce the number of viable of Mycobacterium smegmatis ATCC 19420 by 50%
[5] = system: Mycobacterium tuberculosis; experiment: Minimum inhibitory concentration required in vitro to reduce the number of viable of Mycobacterium tuberculosis ATCC 27294 by 50%
[6] = system: Mycobacterium tuberculosis; experiment: Minimum inhibitory concentration required in vitro to reduce the number of viable of Mycobacterium tuberculosis clinical isolate 1104 by 50%
[7] = system: Mycobacterium tuberculosis; experiment: Minimum inhibitory concentration required in vitro to reduce the number of viable of Mycobacterium tuberculosis ATCC 27294 by 90%
[8] = system: Mycobacterium tuberculosis; experiment: Minimum inhibitory concentration required in vitro to reduce the number of viable of Mycobacterium tuberculosis clinical isolate 1104 by 90%
[9] = system: Mycolicibacterium smegmatis; experiment: Minimum inhibitory concentration required in vitro to reduce the number of viable of Mycobacterium smegmatis ATCC 19420 by 90%
Salmonella [10] = experiment: Minimum bactericidal concentration required in vitro against Salmonella
Salmonella [11] = experiment: Minimum inhibitory concentration required in vitro against Salmonella
Shigella [12] = experiment: Minimum bactericidal concentration required in vitro against Shigella
Shigella [13] = experiment: Minimum inhibitory concentration required in vitro against Shigella
Streptococcus [14] = experiment: Minimum bactericidal concentration required in vitro against Streptococcus D
Streptococcus [15] = experiment: Minimum inhibitory concentration required in vitro against Streptococcus D
Staphylococcus aureus [16] = experiment: Minimum inhibitory concentration required in vitro against Staphylococcus aureus
Staphylococcus aureus [17] = experiment: Minimum bactericidal concentration required in vitro against Staphylococcus aureus
Mycobacterium avium [18] = experiment: Minimum inhibitory concentration required in vitro to reduce the number of viable of Mycobacterium avium complex (MAC) ATCC 49601 by 90%

SMILES | CC50 (MT4) [µM] | MIC50 (Mycobacterium avium [1]) [µM] | MIC50 [2] [µM] | MIC90 [3] [µM] | MIC50 [4] [µM] | MIC50 [5] [µM] | MIC50 [6] [µM] | MIC90 [7] [µM] | MIC90 [8] [µM] | MIC90 [9] [µM] | MBC (Salmonella [10]) [µM] | MIC (Salmonella [11]) [µM] | MBC (Shigella [12]) [µM] | MIC (Shigella [13]) [µM] | MBC (Streptococcus [14]) [µM] | MIC (Streptococcus [15]) [µM] | MIC (Staphylococcus aureus [16]) [µM] | MBC (Staphylococcus aureus [17]) [µM] | MIC90 (Mycobacterium avium [18]) [µM]
O=C(O)c1cn(C2CC2)c2cc(NC3CC3)c([N+](=O)[O-])cc2c1=O | 40 | > 200 | 3.6 (≈ 1.19 µg/mL) | 100 (≈ 32.9 µg/mL) | 3.2 (≈ 1.05 µg/mL) | ≥ 200 | 72 (≈ 23.7 µg/mL) | > 200 | > 200 | 50 (≈ 16.5 µg/mL) | 1.5 (≈ 0.494 µg/mL) | 1.5 (≈ 0.494 µg/mL) | 1.5 (≈ 0.494 µg/mL) | 1.5 (≈ 0.494 µg/mL) | 0.8 (≈ 0.263 µg/mL) | 0.8 (≈ 0.263 µg/mL) | 0.8 (≈ 0.263 µg/mL) | 1.5 (≈ 0.494 µg/mL) | 
CC(C)(C)Nc1cc2c(cc1[N+](=O)[O-])c(=O)c(C(=O)O)cn2C(C)(C)C | 140 | 1.2 (≈ 0.434 µg/mL) |  |  | 0.5 (≈ 0.181 µg/mL) | 1.4 (≈ 0.506 µg/mL) | 1.5 (≈ 0.542 µg/mL) | 6 (≈ 2.17 µg/mL) | 6 (≈ 2.17 µg/mL) | 1.5 (≈ 0.542 µg/mL) | 6 (≈ 2.17 µg/mL) | 3 (≈ 1.08 µg/mL) | 6 (≈ 2.17 µg/mL) | 6 (≈ 2.17 µg/mL) | 0.05 (≈ 0.0181 µg/mL) | 0.05 (≈ 0.0181 µg/mL) | 0.05 (≈ 0.0181 µg/mL) | 0.05 (≈ 0.0181 µg/mL) | 12 (≈ 4.34 µg/mL)
CC(C)(C)Nc1cc2c(cc1[N+](=O)[O-])c(=O)c(C(=O)O)cn2C1CC1 | 192 | 54 (≈ 18.6 µg/mL) | > 125 |  | 2 (≈ 0.691 µg/mL) | 35 (≈ 12.1 µg/mL) | 16 (≈ 5.53 µg/mL) | > 200 | > 200 | 5 (≈ 1.73 µg/mL) | 25 (≈ 8.63 µg/mL) | 25 (≈ 8.63 µg/mL) | 25 (≈ 8.63 µg/mL) | 25 (≈ 8.63 µg/mL) | 2.5 (≈ 0.863 µg/mL) | 0.6 (≈ 0.207 µg/mL) | 0.6 (≈ 0.207 µg/mL) | 1.2 (≈ 0.414 µg/mL) | > 200
CC(C)(C)n1cc(C(=O)O)c(=O)c2cc([N+](=O)[O-])c(NC3CC3)cc21 | ≥ 200 | 47 (≈ 16.2 µg/mL) | > 125 |  | 2 (≈ 0.691 µg/mL) | 31 (≈ 10.7 µg/mL) | 47 (≈ 16.2 µg/mL) | > 200 | > 200 | 7 (≈ 2.42 µg/mL) | 25 (≈ 8.63 µg/mL) | 25 (≈ 8.63 µg/mL) | 25 (≈ 8.63 µg/mL) | 25 (≈ 8.63 µg/mL) | 10 (≈ 3.45 µg/mL) | 5 (≈ 1.73 µg/mL) | 2.5 (≈ 0.863 µg/mL) | 10 (≈ 3.45 µg/mL) | > 200
CC(C)(C)Nc1cc2c(cc1F)c(=O)c(C(=O)O)cn2C(C)(C)C | > 200 | > 200 | 36 (≈ 12 µg/mL) | 129 (≈ 43.1 µg/mL) | 34.5 (≈ 11.5 µg/mL) | 126 (≈ 42.1 µg/mL) | > 200 | ≥ 200 |  | > 200 | 12 (≈ 4.01 µg/mL) | 12 (≈ 4.01 µg/mL) | 25 (≈ 8.36 µg/mL) | 12 (≈ 4.01 µg/mL) | 12 (≈ 4.01 µg/mL) | 12 (≈ 4.01 µg/mL) | 12 (≈ 4.01 µg/mL) | 12 (≈ 4.01 µg/mL) | 
Nc1cc2c(=O)c(C(=O)O)cn(C3CC3)c2cc1NC1CC1 | 200 | 129 (≈ 38.6 µg/mL) | 200 (≈ 59.9 µg/mL) |  | 156 (≈ 46.7 µg/mL) | > 200 | > 200 |  |  | > 200 |  | > 200 |  | > 200 | 50 (≈ 15 µg/mL) | 50 (≈ 15 µg/mL) | 25 (≈ 7.48 µg/mL) | 25 (≈ 7.48 µg/mL) | > 200
CC(C)(C)Nc1cc2c(cc1N)c(=O)c(C(=O)O)cn2C(C)(C)C | > 200 | 140 (≈ 46.4 µg/mL) | > 125 |  | > 125 | 168 (≈ 55.7 µg/mL) | > 200 | > 200 | > 200 |  |  | > 125 |  | > 125 |  | > 125 | > 125 |  | > 200
O=C(O)c1cn(C2CC2)c2cc(NC3CC3)c(F)cc2c1=O | > 200 | > 200 | > 125 | > 200 | 150 (≈ 45.3 µg/mL) | > 200 | > 200 |  |  | > 200 | 12 (≈ 3.63 µg/mL) | 12 (≈ 3.63 µg/mL) | 25 (≈ 7.56 µg/mL) | 12 (≈ 3.63 µg/mL) | 12 (≈ 3.63 µg/mL) | 12 (≈ 3.63 µg/mL) | 12 (≈ 3.63 µg/mL) | 12 (≈ 3.63 µg/mL) | > 200
O=C(O)c1cn(C2CC2)c2cc(N3CCNCC3)c(F)cc2c1=O [CIPROFLOXACIN] | 60 | 2 (≈ 0.663 µg/mL) |  |  |  |  |  | 3 (≈ 0.994 µg/mL) |  |  | 0.01 (≈ 0.00331 µg/mL) | 0.01 (≈ 0.00331 µg/mL) | 0.01 (≈ 0.00331 µg/mL) | 0.01 (≈ 0.00331 µg/mL) | 0.8 (≈ 0.265 µg/mL) | 0.4 (≈ 0.133 µg/mL) | 0.4 (≈ 0.133 µg/mL) | 0.4 (≈ 0.133 µg/mL) | 3 (≈ 0.994 µg/mL)
CC1COc2c(N3CCN(C)CC3)c(F)cc3c(=O)c(C(=O)O)cn1c23 (stereo not drawn) [OFLOXACIN] | > 200 | 1.5 (≈ 0.542 µg/mL) | 2 (≈ 0.723 µg/mL) | 5 (≈ 1.81 µg/mL) | 2 (≈ 0.723 µg/mL) | 3 (≈ 1.08 µg/mL) | 2 (≈ 0.723 µg/mL) | 3 (≈ 1.08 µg/mL) | 3 (≈ 1.08 µg/mL) | 4 (≈ 1.45 µg/mL) | 0.4 (≈ 0.145 µg/mL) | 0.4 (≈ 0.145 µg/mL) | 0.4 (≈ 0.145 µg/mL) | 0.4 (≈ 0.145 µg/mL) | 1.5 (≈ 0.542 µg/mL) | 1.5 (≈ 0.542 µg/mL) | 0.8 (≈ 0.289 µg/mL) | 0.8 (≈ 0.289 µg/mL) | 3 (≈ 1.08 µg/mL)
